Key:
[1] = tested on: zonula occludens-1 and occludin in gingival keratinocytes challenged with P. gingivalis; experiment: Immunofluorescence of tight junction proteins with P. gingivalis challenge; assay type: cell-based, human; conditions: Example 4, FIGS. 17, 20, 23
Method: (§1) Gingival keratinocytes treated as described above for 12 h were immunostained for zonula occludens-1 and occludin, two tight junction proteins. Briefly, the cells were fixed in 50 mM phosphate-buffered saline (pH 7.2) (PBS) containing 4% paraformaldhehyde for 20 min, permeabilized with 0.1% Triton X-100 for 10 min, and blocked in 3% non-fat milk in 20 mM Tris-HCl (pH 8), 150 mM NaCl, and 0.5% Tween 20 for 40 min. The cells were incubated with 2.5 μg/mL of either occludin antibody-Alexa Fluor® 488 conjugate or ZO-1 antibody-Alexa Fluor® 594 conjugate in blocking buffer overnight at 4° C. After washing with PBS, the cells were then treated with ProLong® Diamond antifade (Life Technologies). The slides were sealed with nail polish and were kept in the dark at 4° C. The localization of tight junction proteins in B11 cells was visualized using an Olympus FSX100 fluorescence microscope and FSX-BSW imaging software (Olympus, Tokyo, Japan). Immunofluorescent staining of tight junction proteins is a qualitative assay.
The gingival epithelium, a stratified squamous tissue that acts as an interface between the external environment and the underlying connective tissue, plays an active role in maintaining oral health. […] The capability of test compositions to protect oral tissue from perio-pathogenic bacteria caused tissue damage was assessed using the methodology set out in Example 2. […]

[2] = tested on: B11 gingival keratinocytes challenged with P. gingivalis; experiment: Paracellular permeability to FITC-dextran with P. gingivalis challenge; assay type: cell-based, human; conditions: P. gingivalis MOI=10^4; over 48 h; FIGS. 16, 19, 22
Method: (§2) The ability of test composition samples to enhance epithelial barrier integrity was assessed by monitoring the paracellular transport of FITC-conjugated 4.4-kDa dextran (FD-4; Sigma-Aldrich Canada Ltd.) across the keratinocyte layer. Briefly, B11 cells were cultured on Transwell filters, and FD-4 ([…] in culture medium) was added in the apical compartment in the presence of the test composition under investigation. Fluorescence in the basolateral compartment was measured at 0, 4, 8, 24, and 48 h using a Synergy 2 microplate reader (BioTek Instrument, Winooski, Vt., USA).
(§3) Briefly, B11 cells were cultured on Transwell™ filters, and FD-4 (1 mg/mL in culture medium) was added to the apical compartment in the presence of the test compounds. The presence of FD-4 in the basolateral compartment was determined at 0, 2, 6, 24, and 48 h by measuring the fluorescence (RUF; excitation wavelength 495 nm; emission wavelength 525 nm) using a Synergy 2 microplate reader.

[3] = tested on: hemolytic activity of P. gingivalis; experiment: Hemolytic assay with sheep red blood cells; assay type: cell-based, Porphyromonas gingivalis; conditions: Example 6, FIGS. 37, 40, 43; red blood cells from sheep
Method: A hemolytic assay is performed as follows. Fresh sheep red blood cells (Nutri-Bact, Terrebonne, QC, Canada) were harvested from heparinized whole blood by centrifugation (600×g for 5 min), washed three times in phosphate-buffered saline (PBS; pH 7.0), and suspended in PBS to a concentration of 2% (v/v). Equal volumes (1 mL) of red blood cells, P. gingivalis cells (OD660=1.0 in PBS), and two-fold serial dilutions of the Test composition were mixed together. PBS replaced the bacteria in the negative control. Following an incubation at 37° C. for 4 h, the mixtures were incubated at 4° C. for 1 h and were then centrifuged (10 000×g for 5 min) prior to recording the absorbance of the supernatants at 540 nm (A540). 1 ml P. gingivalis+1 ml of red blood cells+1 ml of test compounds used in the hemolysis assay are incubated at 37° C. for to 4 h. All constituents are added at the same time. […]
Fresh sheep red blood cells (Nutri-B act, Terrebonne, QC, Canada) were harvested from heparinized whole blood by centrifugation (600×g for 5 min), washed three times in phosphate-buffered saline (PBS; pH 7.0), and suspended in PBS to a concentration of 2% (v/v). […] Following an incubation at 37° C. for 4 h, the mixtures were incubated at 4° C. for 1 h and were then centrifuged (10 000×g for 5 min) prior to recording the absorbance of the supernatants at 540 nm (A540).

[4] = tested on: B11 immortalized human gingival keratinocyte cell line; experiment: Paracellular permeability to FITC-dextran (FD-4); assay type: cell-based; conditions: no challenge; over 48 h; FIGS. 7, 10, 13
Method: as §2, §3

[5] = tested on: occludin and zonula occludens-1 in TNF-α-treated gingival keratinocytes; experiment: Immunofluorescence of tight junction proteins with TNF-α challenge; assay type: cell-based, human; conditions: Example 5, FIGS. 26, 33, 34
Method: as §1, with “The cells were incubated with 2.5 μg/mL of either occludin antibody-Alexa Fluor® 488 conjugate or ZO-1 antibody-Alexa Fluor® 594 conjugate in blocking buffer overnight at 4° C.” left out
Assays exposed cells to either TNFα only or TNFα+test composition. TNFα is known to cause tissue damage. A stock solution of recombinant TNF-α is prepared in sterile distilled water at 100 μg/ml. Thereafter, dilutions are made in keratinocyte culture medium. First dilution is 1/1000 to obtain 100 ng/ml. TNF-α and the test compounds are added simultaneously.

P. gingivalis = P. gingivalis invasion / translocation through keratinocyte layer; assay type: cell-based, Porphyromonas gingivalis; conditions: Example 6, FIGS. 36, 39, 42
Method: Assays were performed to determine the extent formulations can inhibit and reduce invasion of cell monolayer by P. gingivalis.
The basolateral and apical compartments were filled with 0.235 mL and 0.075 mL of K-SFM, respectively. Following a 48-h incubation, the conditioned medium was replaced with antibiotic-free K-SFM. To determine the ability of P. gingivalis to penetrate the keratinocyte layer, FITC-labeled bacteria suspended in antibiotic-free K-SFM were added to the apical compartment of the double-chamber system at an MOI of 10^4. […] To evaluate the effect of the Dual Zinc plus Arginine aqueous solution and dentifrice on the invasive capacity of P. gingivalis, the keratinocyte layer was co-incubated with them and the bacteria. The translocation of FITC-labeled bacteria through the keratinocyte barrier was monitored using a Synergy 2 microplate reader by measuring the fluorescence (RUF; excitation wavelength 495 nm; emission wavelength 525 nm) in the medium recovered from the lower chamber following a 24-h incubation in an anaerobic chamber at 37° C.

## O=C([O-])CC(O)(CC(=O)[O-])C(=O)[O-].O=C([O-])CC(O)(CC(=O)[O-])C(=O)[O-].[Zn+2].[Zn+2].[Zn+2] [zinc citrate]
[1]
  immunofluorescence of tight junction proteins with P. gingivalis: protects barrier integrity from the deleterious effects caused by the presence of P. gingivalis
[2]
  paracellular permeability to FITC-dextran with P. gingivalis: decreased with the increase in concentration of zinc citrate
[3]
  inhibition of hemolytic activity of P. gingivalis: inhibited P. gingivalis hemolysis
[4]
  paracellular permeability to FITC-dextran: decreased with the increase in concentration of zinc citrate

## [O]=[Zn] [zinc oxide]
[5]
  TNFα induced cell junction disorganization (immunofluorescence): prevents TNFα induced cell junction disorganization
[1]
  immunofluorescence of tight junction proteins with P. gingivalis: protects barrier integrity from the deleterious effects caused by the presence of P. gingivalis
[2]
  paracellular permeability to FITC-dextran with P. gingivalis: decreased with the increase in concentration of zinc oxide
[3]
  inhibition of hemolytic activity of P. gingivalis: inhibited P. gingivalis hemolysis
P. gingivalis
  invasion of an epithelial cell monolayer by P. gingivalis: inhibits invasion of an epithelial cell monolayer
[4]
  paracellular permeability to FITC-dextran: decreased with the increase in concentration of zinc oxide

From patent publication US20210308028A1, “Compositions and Methods for Maintaining and Protecting Tissue Integrity and Barrier Function” (Colgate-Palmolive Company, priority 2020, published 2021)
